Results: patent US20030166598A1, “Medicines for treating tumoral pathologies containing the ro5-4864 compound and an apoptosis-inducing agent” (priority 2000, published 2003)

Legend:
[1] = test system: 143N2 (osteosarcoma); test: Cell viability (methylene blue test) with CH11 anti-FasR antibody, 143N2 line; assay type: cell-based, human
Experimental: (§1) The human lines Jurkat (lymphoid T), SHEP (neuroblastoma) transfected with a control vector or with a bcl-2 or bcl-XL vector, 143N2 (osteosarcoma) and SNB79 (glioblastoma) were cultured in DMEM or RPMI 1640 (Sigma Chemical Co., St Louis, Mo.) supplemented with FCS 10% (Dutscher, Brumath, France), penicillin G (10^2 IU/mI)+streptomycin (50 μg/ml) (Sigma) and L-glutamine ([…], Sigma).
(§2) The cells were cultured in the presence of anti-Fas receptor antibody CH11 (1 μg/ml; Immunotech, Marseilles, France) concomitantly or after exposure to RO5-4864 (BioBlock Scientific, Illkirch, France), diazepam (Roche, Neuilly sur Seine, France), or PK11195 (BioBlock), at various concentrations.
(§3) Cell viability was measured by testing with methylene blue (Dimanche-Boitrel et al., 1992).
3. FIG. 3: culture of the 143N2 line in the presence of CH11 with (black histograms) or without (grey histograms) RO5-4864, PK11195 or diazepam. Evaluation of cell viability (test with methylene blue; percentage of cells on ordinate), as a function of the concentration of RO5-4864 (100 μM or RO 100, 200 μM or RO 200), PK11195 (50 μM or PK50, 80 μM or PK 80) and DIAZEPAM (50 μM or DIA50, 80 μM or DIA80).

[2] = test system: SNB79 (glioblastoma); test: Cell viability (methylene blue test) with CH11 anti-FasR antibody, SNB79 line; assay type: cell-based, human
Experimental: as §1, §2, §3
4. FIG. 4: culture of the SNB79 line in the presence of CH11 with (•) or without (o) RO5-4864. Evaluation of cell viability (test with methylene blue; percentage of cells on the ordinate), as a function of the concentration (μM) of Ro5-4864.

[3] = test system: Jurkat (lymphoid T); test: Quantification of apoptosis in Jurkat cells cultured with anti-Fas receptor antibody CH11 and PBR ligands; assay type: cell-based, human; details: for potentiation of the apoptotic effect of the CH11 anti-FasR antibody: FIGS. 1A and 1B; for proportion of subdiploid (apoptotic) cells: ligand at 60 μM in combination with CH11 anti-FasR antibody
Experimental: as §1, §2
Lipophilic fluorochrome DiOC6(3) (Molecular Probes, Eugene, Oreg.) was used for measuring the membrane potential of the mitochondria (Δψm). Briefly, the cells were incubated for 15 min at 37° C. in the presence of 40 nM of DiOC6(3), with immediate analysis of the incorporation of fluorescence on a type Epics Profile II cytofluorometer (Coulter, Miami, Fla.). Hydroethydine (HE) (2 μM, 15 min at 37° C., Molecular Probes) was used for measuring the production of superoxide anion (Marchetti et al., 1996). Finally, the proportion of cells that had lost part of the chromosomal DNA (subdiploid cells) was determined with propidium iodide on cells fixed in ethanol (Nicoletti et al., 1991).
1. FIG. 1: culture of Jurkat cells in the presence of CH11 with (white histograms) or without (black histograms) RO5-4864, PK11195 or diazepam.

[4] = test system: SHEP bcl-XL; test: Cell viability (methylene blue test) with CH11 anti-FasR antibody, SHEP bcl-XL line; assay type: cell-based, human
Experimental: as §1, §2, §3
(§4) 2. FIG. 2: culture of the SHEP control lines (SHEP.control), of SHEP lines transfected with bcl2 (SHEP.Bcl2), and of SHEP lines transfected with bclXL (SHEP.BClXL), in the presence of CH11 with (black histograms) or without (grey histograms) RO5-4864. Evaluation of cell viability (test with methylene blue; percentage of cells on ordinate), as a function of the concentration of RO5-4864 (0, 100 μM or RO100, 200 μM or RO 200).

[5] = test system: SHEP-bcl-2; test: Cell viability (methylene blue test) with CH11 anti-FasR antibody, SHEP-bcl-2 line; assay type: cell-based, human
Experimental: as §1, §2, §3, §4

[6] = test system: SHEP-control (neuroblastoma transfected with a control vector); test: Cell viability (methylene blue test) with CH11 anti-FasR antibody, SHEP-control line; assay type: cell-based, human
Experimental: as §1, §2, §3, §4

[7] = test system: SCLC6 small-cell bronchial carcinoma; test: SCLC6 human tumour xenotransplanted in nude mice, tumour growth; assay type: in vivo, mouse; details: etoposide 12 mg/kg/day + ifosfamide 90 mg/kg/day D1 to D3 + RO5-4864 40 mg/kg/day D1 to D3, p<0.05
[8] = test system: SCLC61 small-cell bronchial carcinoma; test: SCLC61 human tumour xenotransplanted in nude mice, tumour growth; assay type: in vivo, mouse

SMILES | reversal of resistance to the CH11 anti-FasR antibody [1] | reversal of resistance to the CH11 anti-FasR antibody [2] | potentiation of the apoptotic effect of the CH11 anti-FasR antibody [3] | proportion of subdiploid (apoptotic) cells [3] [%] | reversal of resistance to the CH11 anti-FasR antibody [4] | reversal of resistance to the CH11 anti-FasR antibody [5] | reversal of resistance to the CH11 anti-FasR antibody [6] | antitumour effect of the chemotherapy with RO5-4864 [7] | tumour growth ([8]; RO5-4864 alone, 12 mg/kg/day s.c. D1 to D3) | antitumour effect of etoposide with concomitant RO5-4864 ([8]; etoposide 12 mg/kg/day i.p. D1 to D3 + RO5-4864 12 mg/kg/day s.c. D1 to D3, p<0.005)
CCC(C)N(C)C(=O)c1cc2ccccc2c(-c2ccccc2Cl)n1 (stereo not drawn) [PK11195] | only observed with diazepam and PK11195 on the line SHEP-control | only observed with diazepam and PK11195 on the line SHEP-control | potentiate the apoptotic effect | 25 | only observed with diazepam and PK11195 on the line SHEP-control | only observed with diazepam and PK11195 on the line SHEP-control | observed | – | – | –
CN1C(=O)CN=C(c2ccc(Cl)cc2)c2cc(Cl)ccc21 [RO5-4864, 4′-chlorodiazepam] | reverses the resistance | reverses the resistance | potentiate the apoptotic effect | 73 | reverses the resistance | reverses the resistance | reverses the resistance | increased | not altered | increased
CN1C(=O)CN=C(c2ccccc2)c2cc(Cl)ccc21 [diazepam] | only observed with diazepam and PK11195 on the line SHEP-control | only observed with diazepam and PK11195 on the line SHEP-control | potentiate the apoptotic effect | 20 | only observed with diazepam and PK11195 on the line SHEP-control | only observed with diazepam and PK11195 on the line SHEP-control | observed | – | – | –
